According to patent publication US6548480B1, “Phosphonic acid derivatives with metallopeptidase inhibitory activity” (Zambon Group S.p.A., priority 1995, dated 2003):
Where a name gives a salt, the structure may show the parent alone.

Legend:
ACE [1] = target: T1, ACE (Oryctolagus cuniculus, UniProt P12822); test: In vitro ACE-inhibitory activity (FAPGG substrate, spectrophotometric); type: biochemical; conditions: ACE purified by lung rabbit, FAPGG 0.8 mM, 37° C.; compounds of formula I tested as lithium salts
T1 construct: ACE (250 mU/ml purified by lung rabbit, EC 3.4.15.1 SIGMA); purchased SIGMA; host or cells: rabbit lung
T1 sequence (P12822 34-1310): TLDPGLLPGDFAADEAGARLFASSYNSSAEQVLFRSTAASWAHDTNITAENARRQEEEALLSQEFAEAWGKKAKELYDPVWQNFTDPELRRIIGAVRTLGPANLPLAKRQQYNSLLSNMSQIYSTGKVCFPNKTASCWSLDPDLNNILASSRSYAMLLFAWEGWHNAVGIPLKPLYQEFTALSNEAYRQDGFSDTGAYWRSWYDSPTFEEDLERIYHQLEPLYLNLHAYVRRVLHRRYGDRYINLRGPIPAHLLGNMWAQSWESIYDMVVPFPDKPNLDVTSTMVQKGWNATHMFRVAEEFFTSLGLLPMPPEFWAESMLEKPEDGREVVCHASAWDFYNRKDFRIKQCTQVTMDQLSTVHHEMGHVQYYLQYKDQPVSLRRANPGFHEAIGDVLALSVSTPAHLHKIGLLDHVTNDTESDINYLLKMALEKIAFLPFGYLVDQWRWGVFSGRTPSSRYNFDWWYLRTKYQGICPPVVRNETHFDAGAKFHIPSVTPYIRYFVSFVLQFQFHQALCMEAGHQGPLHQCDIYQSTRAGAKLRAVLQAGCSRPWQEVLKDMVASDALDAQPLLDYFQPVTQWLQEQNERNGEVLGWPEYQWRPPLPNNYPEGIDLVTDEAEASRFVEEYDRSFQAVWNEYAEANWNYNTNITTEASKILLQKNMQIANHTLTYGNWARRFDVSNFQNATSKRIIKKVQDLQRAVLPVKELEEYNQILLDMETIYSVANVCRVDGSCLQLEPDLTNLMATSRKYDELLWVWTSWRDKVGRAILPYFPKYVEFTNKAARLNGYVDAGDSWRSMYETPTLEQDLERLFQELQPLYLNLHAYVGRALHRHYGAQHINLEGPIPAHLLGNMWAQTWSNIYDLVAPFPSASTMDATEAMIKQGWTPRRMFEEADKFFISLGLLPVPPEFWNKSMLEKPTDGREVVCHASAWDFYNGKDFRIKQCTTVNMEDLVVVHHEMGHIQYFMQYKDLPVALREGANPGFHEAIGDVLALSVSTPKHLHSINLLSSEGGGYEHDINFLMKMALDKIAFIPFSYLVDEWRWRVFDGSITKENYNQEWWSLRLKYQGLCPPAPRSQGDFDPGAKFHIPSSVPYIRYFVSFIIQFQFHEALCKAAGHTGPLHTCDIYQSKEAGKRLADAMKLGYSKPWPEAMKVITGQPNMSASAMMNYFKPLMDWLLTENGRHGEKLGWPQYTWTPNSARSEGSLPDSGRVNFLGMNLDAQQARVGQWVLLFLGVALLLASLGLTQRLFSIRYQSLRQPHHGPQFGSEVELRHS
Procedure: The reaction was started by adding furylacryloylphenylalanylglycylglycine 0.8 mM (FAPGG-SIGMA).
Contemporaneously, by using a Beckman DU-50 spectrophotometer provided with a program for calculating delta A/minutes and regression coefficients of the enzyme kinetics curves, the absorbance at 340 nm was recorded in continuo for 5 minutes.

ACE [2] = target: T2, ACE (Rattus norvegicus, UniProt P47820); test: Ex vivo ACE-inhibitory activity in lungs of SHR after i.v. injection; parameters: species or system spontaneously hypertensive rats (SHR); conditions: iv, 5 minutes after i.v. injection, 21 μmoles/kg, read-out: ACE-inhibitory activity (lung) % of inhibition
T2 construct: After the removal of the lungs from SHR, the lung tissue was homogenized; from tissue; host or cells: lung homogenate of spontaneously hypertensive rats (SHR) dosed i.v
T2 sequence (P47820 36-1313): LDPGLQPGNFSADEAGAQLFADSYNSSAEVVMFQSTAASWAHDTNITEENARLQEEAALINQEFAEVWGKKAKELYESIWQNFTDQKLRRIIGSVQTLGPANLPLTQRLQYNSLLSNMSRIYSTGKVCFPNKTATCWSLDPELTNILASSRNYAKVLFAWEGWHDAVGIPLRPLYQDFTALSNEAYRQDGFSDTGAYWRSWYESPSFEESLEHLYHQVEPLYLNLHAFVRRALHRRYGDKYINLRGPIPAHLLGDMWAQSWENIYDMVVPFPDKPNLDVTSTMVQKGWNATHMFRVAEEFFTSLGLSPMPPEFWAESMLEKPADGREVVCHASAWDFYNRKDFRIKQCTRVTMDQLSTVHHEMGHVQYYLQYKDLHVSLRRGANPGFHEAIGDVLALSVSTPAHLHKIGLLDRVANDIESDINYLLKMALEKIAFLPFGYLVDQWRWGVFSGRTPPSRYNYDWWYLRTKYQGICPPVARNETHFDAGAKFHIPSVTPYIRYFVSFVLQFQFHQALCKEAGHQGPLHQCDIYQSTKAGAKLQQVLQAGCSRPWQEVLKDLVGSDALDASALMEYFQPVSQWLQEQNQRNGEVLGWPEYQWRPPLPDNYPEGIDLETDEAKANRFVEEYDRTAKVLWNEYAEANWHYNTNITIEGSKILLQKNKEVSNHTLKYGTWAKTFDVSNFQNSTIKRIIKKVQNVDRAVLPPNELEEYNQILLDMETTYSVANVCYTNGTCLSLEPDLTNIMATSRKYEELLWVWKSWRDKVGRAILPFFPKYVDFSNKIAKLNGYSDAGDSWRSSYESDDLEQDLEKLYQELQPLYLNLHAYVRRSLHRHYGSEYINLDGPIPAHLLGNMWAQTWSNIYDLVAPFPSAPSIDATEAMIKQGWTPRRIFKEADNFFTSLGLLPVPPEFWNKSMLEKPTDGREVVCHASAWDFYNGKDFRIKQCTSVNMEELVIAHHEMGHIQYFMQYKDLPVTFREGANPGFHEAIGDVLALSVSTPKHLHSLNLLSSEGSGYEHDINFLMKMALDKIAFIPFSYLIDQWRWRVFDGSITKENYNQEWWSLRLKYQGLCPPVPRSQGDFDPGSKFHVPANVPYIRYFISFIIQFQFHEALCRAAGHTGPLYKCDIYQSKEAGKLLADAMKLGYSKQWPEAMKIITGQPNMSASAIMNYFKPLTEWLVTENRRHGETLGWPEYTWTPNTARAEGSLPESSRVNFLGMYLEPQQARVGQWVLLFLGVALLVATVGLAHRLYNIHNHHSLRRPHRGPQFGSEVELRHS
Procedure: After the removal of the lungs from SHR, the lung tissue was homogenized and incubated for 2 hours at 37° C. in the presence of [^3H]Hyp-Gly-Gly, as a substrate.
The reaction was stopped by adding hydrochloric acid.
The released radio-labelled hyppuric acid was extracted with ethyl acetate and counted by liquid scintillation spectrometry, according to conventional methods.

NEP [3] = target: T3, NEP (Rattus norvegicus, UniProt P07861); test: In vitro NEP-inhibitory activity in rat kidney cortex membranes ([3H][Leu5]-enkephaline hydrolysis); type: biochemical; parameters: from tissue; host or cells: kidney cortex membranes of male Sprague-Dawley rats; conditions: [3H][Leu5]-enkephaline 15 nM, 30° C., compounds of formula I tested as lithium salts
T3 sequence (P07861 1-750): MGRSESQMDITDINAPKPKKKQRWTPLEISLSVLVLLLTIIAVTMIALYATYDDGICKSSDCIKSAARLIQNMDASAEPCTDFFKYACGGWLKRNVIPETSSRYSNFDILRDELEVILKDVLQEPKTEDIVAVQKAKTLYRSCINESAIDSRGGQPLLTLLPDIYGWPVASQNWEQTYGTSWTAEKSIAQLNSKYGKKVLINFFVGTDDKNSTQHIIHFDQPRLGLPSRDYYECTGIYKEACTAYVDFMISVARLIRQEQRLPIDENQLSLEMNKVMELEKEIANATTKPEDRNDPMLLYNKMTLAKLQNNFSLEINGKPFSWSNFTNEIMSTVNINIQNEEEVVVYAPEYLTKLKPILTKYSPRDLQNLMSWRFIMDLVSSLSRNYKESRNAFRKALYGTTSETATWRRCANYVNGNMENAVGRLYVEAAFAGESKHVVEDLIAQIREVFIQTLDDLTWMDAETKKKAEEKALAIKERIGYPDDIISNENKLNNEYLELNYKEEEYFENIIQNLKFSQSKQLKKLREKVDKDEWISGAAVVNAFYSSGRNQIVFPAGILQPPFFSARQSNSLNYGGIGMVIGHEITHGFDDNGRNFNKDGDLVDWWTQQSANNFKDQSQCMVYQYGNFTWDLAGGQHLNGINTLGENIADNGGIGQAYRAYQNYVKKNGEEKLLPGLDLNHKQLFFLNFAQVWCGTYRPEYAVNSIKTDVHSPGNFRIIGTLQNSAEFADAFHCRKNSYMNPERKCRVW
Procedure: The NEP-inhibitory activity was evaluated in rat kidney cortex membranes prepared according to the procedure described by T. Maeda et al. in Biochim Biophys.
Cortex was carefully dissected, finely minced and suspended in a homogenization buffer (10 mM sodium phosphate pH 7.4 containing 1 mM MgCl2, 30 mM NaCl, 0.02% NaN3) 1:15 weight/volume.
The tissue was then homogenized for 30 seconds using an Ultra-Turrax homogenizer.
The membranes were collected from the buffer/sucrose interface, washed twice with 50 mM TRIS/HCl buffer (pH 7.4) and resuspended into the same buffer for storage.
The NEP-inhibitory activity was evaluated according to the method described by C.
Incubation (20 minutes at 30° C.) was stopped by adding HCl 0.1M (100 μl).
The percentage of inhibition of the metabolite formation in the membrane preparations treated with the compounds of formula I and with the comparative compounds with respect to the untreated membrane preparations was expressed as IC50 (nM) value.

NEP [4] = target: T3, NEP; test: Ex vivo NEP-inhibitory activity in kidneys of SHR after i.v. injection; parameters: After the removal of the kidneys from SHR, the renal tissue was homogenized; from tissue; host or cells: kidney homogenate of spontaneously hypertensive rats (SHR) dosed i.v; species or system spontaneously hypertensive rats (SHR); conditions: iv, 5 minutes after i.v. injection, 21 μmoles/kg, read-out: NEP-inhibitory activity (kidney) % of inhibition
Procedure: After the removal of the kidneys from SHR, the renal tissue was homogenized and incubated for 15 minutes at 37° C. in the presence of Glutaryl-Ala-Ala-Phe-2-naphthyliamide (GAAP), as a substrate, and aminopeptidase M at pH 7.6. The reaction was stopped by adding an aqueous solution at 10% of trichloroacetic acid.
The released 2-naphthylamine was determined by adding fast garnet dye (2 ml).

SMILES: O=C(O)[C@H](Cc1ccccc1)NC(=O)[C@H](Cc1ccccc1)NP(=O)(O)CCCCc1ccccc1 [Compound R-1, N-[N′-(4-phenyl)butylphosphonyl-L-phenlalanyl]-L-phenylalanine dilithium salt]
- IC50 (ACE [1]): 20 nM
- inhibition at 21 µmol/kg (ACE [2]): 25%
- IC50 (NEP [3]): 5.5 nM
- inhibition at 21 µmol/kg (NEP [4]): 20%

SMILES: C[C@H](CS)C(=O)N1CCC[C@H]1C(=O)O [Captopril]
- NEP-inhibitory activity IC50 (nM) (NEP [3]): not active
